Experimental data as given in patent US11008325B2, “Inhibitors of cancer invasion, attachment, and/or metastasis” (VIRGINIA COMMONWEALTH UNIVERSITY, priority 2016, dated 2021).

Columns and labels:
IGF-1R and STAT3 = test: western blot after hIGFBP-2 stimulation; format: cell-based; settings: dose- and time-dependent
Description: FIGS. 17A-17H. Effect of PDZ1i on invasion, MDA-9/IGF-R1 interaction and IGF-R1, STAT3 and SRC phosphorylation. FIG. 17A) Different cancer cells (25,000 cells/well) from various anatomic origins were pre-treated with either DMSO (vehicle) or PDZ1i (dose as indicated) and invasion ability was assayed using modified Boyden Chamber according to the manufacturer's instructions. Photomicrographs were taken at 10× magnification and quantification of the results of three independent experiments is provided in the graphs. The data presents mean±S.D. B) The designated cells were treated with DMSO or PDZ1i and invasion properties were determined using a modified Boyden Chamber assay (BD bioscience). RWPE-1 mda-9: mda-9 transiently overexpressing cell line. […] FIG. 17E) Cells were growth starved for 24 h and treated with either DMSO or PDZ1i (dose indicated in μM) for 6 h. Cells were treated with human recombinant IGFBP-2 (hIGFBP-2, 10 ng/ml) for 2 h, lysates were prepared and western blot analysis was conducted with specific antibodies. FIG. 17F) Cells were serum-starved for 24 h and treated with either DMSO or PDZ1i (20 μM) for 6 h. […] Cells were treated with human recombinant […] (hIGFBP-2, 1 ng/ml) for 2 h, cell lysates were prepared and analyzed by western blotting. […]

ARCaPM-Luc cells = test: PDZ1i pre-treated ARCaPM-Luc cells injected intravenously; format: in vivo, athymic nude mice
Description: FIG. 19A-19F. PDZ1i suppresses prostate cancer metastasis and tumor progression. FIG. 19A) Survival data for athymic nude mice in which DMSO or PDZ1i pre-treated ARCaPM cells were injected. FIG. 19B) Survival data for athymic nude mice which were injected with (n=5, each group) ARCaPM-Luc (1×10^6 cells in 100 μl saline) through an intracardiac route. Mice received either vehicle or PDZ1i every alternative day (9 injections during the first three months) and maintained until they needed to be euthanized. FIG. 19C) Survival data for C57BL/6 mice injected through the intracardiac route with RM1-Luc. Vehicle or PDZ1i was administered through intraperitoneal injection every alternate day (total 3 injections during the first week). Survival curves were generated using 6 control vehicle-treated and 5 PDZ1i-treated. Kaplan—Meier survival curves were prepared using Graph Pad software. […] Graphical representation of the average prostate weights from control and treated groups. FIG. 19E and FIG. 19F) Photomicrographs representing the histological changes in prostate sections obtained from 6-month old Hi-Myc mice receiving either vehicle (FIG. 19E) or PDZ1i (FIG. 19F).
To evaluate potential therapeutic efficacy of PDZ1i four sets of in vivo experiments were conducted. […]

Cc1cc(NC(=O)c2nc3[nH]c4c(c(=O)n3n2)CCC4)c(C)cc1NC(=O)CCc1nnc(-c2ccccc2)o1 [113B7, N-(2,5-dimethyl-4-(3-(5-phenyl-1,3,4-oxadiazol-2-yl)propanamido)phenyl)-8-oxo-5,6,7,8-tetrahydro-4H-cyclopenta[d][1,2,4]triazolo[1,5-a]pyrimidine-2-carboxamide]
IGF-1R and STAT3 activity (IGF-1R and STAT3): down regulates | cancer cell concentrations in the lungs (ARCaPM-Luc cells; cells pre-treated with 50 μM PDZ1i): lower cancer cell concentrations in the lungs | survival (ARCaPM-Luc cells; cells pre-treated with PDZ1i): survived longer
